Measured values reported in patent US5411976A, “New thiazolidine derivatives, process for preparing same and anti-amnestic composition containing same” (Kabushiki Kaisha Yakult Nonsha, priority 1987, dated 1995).
Blank lines part the entries; values can stand above or below the molecule they belong to. Non-standard residues stand in square brackets, D forms with d. Residues, ends and D or L forms follow the SMILES beside them. *: point of attachment. Thz = O=C(O)[C@@H]1CSCN1; Cbz = O=C(OCc1ccccc1)*

Assays:
[1] = system: SCOP-induced amnestic rat; experiment: Step-down type passive avoidance test in scopolamine-induced amnestic rats; assay type: in vivo, rat (Wister strain); settings: for Acquisition trial: Step-down latency / Acquisition trial: Number of step-down / Acquisition trial: Total time for the test: scopolamine after learning; for Retention trial: Step-down latency after 24 hours / Retention trial: Step-down latency after 48 hours: scopolamine 3.0 mg/kg i.p. after learning
Experimental: (2) A step-down type passive avoidance test
This test was carried out by using the undermentioned apparatus (A) and test animal (B) according to the undermentioned testing method (C).
(A) Test chamber for passive avoidance response of rats
A test chamber of 200(w)×200(1) mm in area was made of transparent acrylic resin plates for observation of the inside and was provided on one side thereof with an electrically insulated platform of 150(w)×200(1)×40(h) in size and on the bottom with a grid floor made of stainless steel which was equipped with a foot-shock generator/scrumbler (HASG-101/S, Medical Agent, Inc.) capable of sending electric current to the grid floor for giving a test animal electric foot shock.
5-Weeks-old male rats of Wister strain weighing 100-145 g (Japan Clea Co., Ltd.) were used as test animals.
The passive avoidance test consists of two steps; an acquisition trial and a retention trial. […] As control, only saline was administered intraperitoneally to a group of the rats. In the acquisition trial, the rat was placed on the platform in the test chamber and, when the rat stepped down on the floor, the electric current of 4 mA was immediately sent to the grid continuously until the rat went up on the platform. At the time the rat having gone up on the platform stayed there for more than 20 seconds, the rat was regarded to have learned the situation and taken out of the test chamber. Repeating this test with another rat under the same condition, the rats learned the situation were collected as passing the test for the acquisition trial. A total time of measurement in the acquisition trial was limited to 300 seconds as maximum, and the time elapsing until the rat stepped down to the grid floor (step-down latency, SDL), the total time elapsing until the rat learned the situation and the times of step-down were measured. […] Immediately after the acquisition trial, scopolamine hydrobromide (SCOP) dissolved in saline was administered intraperitoneally in a dose of 3.0 mg/kg of body weight to the rat to prepare a SCOP-induced amnestic rat. As control, only saline was administered intraperitoneally to a group of the rats. The retention trial was carried out by putting the rat on the platform of the test chamber after the lapse of 24 and 48 hours from the acquisition trial, and the time elapsing until the rat went down to the floor (SDL) was measured. A statistical treatment of the data obtained was made according to the Student's t-test.

prolyl endopeptidase = biological target: T1, prolyl endopeptidase (Homo sapiens, UniProt P48147); experiment: Inhibitory activity to prolyl endopeptidase (IC50); assay type: biochemical
T1 sequence (P48147 1-710): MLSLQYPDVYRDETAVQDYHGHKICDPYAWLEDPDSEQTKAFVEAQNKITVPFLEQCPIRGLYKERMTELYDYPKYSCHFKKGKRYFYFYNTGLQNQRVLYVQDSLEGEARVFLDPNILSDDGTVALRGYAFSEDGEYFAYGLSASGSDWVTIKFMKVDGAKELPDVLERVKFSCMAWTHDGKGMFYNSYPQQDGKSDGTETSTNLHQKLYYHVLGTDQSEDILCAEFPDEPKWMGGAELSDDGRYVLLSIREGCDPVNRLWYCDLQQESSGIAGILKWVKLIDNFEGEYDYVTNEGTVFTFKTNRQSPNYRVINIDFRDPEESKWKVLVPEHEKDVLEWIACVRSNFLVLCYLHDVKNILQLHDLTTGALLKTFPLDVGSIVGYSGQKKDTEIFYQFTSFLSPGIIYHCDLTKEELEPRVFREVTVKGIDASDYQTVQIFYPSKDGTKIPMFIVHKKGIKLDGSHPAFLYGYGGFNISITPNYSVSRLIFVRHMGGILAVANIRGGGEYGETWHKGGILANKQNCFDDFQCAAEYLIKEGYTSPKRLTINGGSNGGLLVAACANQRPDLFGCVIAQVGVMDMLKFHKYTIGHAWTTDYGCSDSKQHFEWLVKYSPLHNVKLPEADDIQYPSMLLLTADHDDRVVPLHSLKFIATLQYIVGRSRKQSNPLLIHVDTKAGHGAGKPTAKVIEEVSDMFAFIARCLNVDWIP

[2] = 2.2 mg/kg i.p. one hour before acquisition trial

Compound: O=C[C@@H]1CSCN1C(=O)[C@@H]1CSCN1C(=O)OCc1ccccc1 [Example 4, N-benzyloxycarbonyl-L-thioprolyl-L-thioprolinal] (Cbz-[Thz]-[Thz]-aldehyde)
Acquisition trial: Step-down latency [1, 2]: 7.6 s | Retention trial: Step-down latency after 24 hours ([1]; 2.2 mg/kg i.p.): 170.9 s | Retention trial: Step-down latency after 48 hours ([1]; 2.2 mg/kg i.p.): 176.5 s | Acquisition trial: Number of step-down ([1]; 2.2 mg/kg i.p.): 2.0 times | Acquisition trial: Total time for the test ([1]; 2.2 mg/kg i.p.): 52.1 s | Retention trial: Step-down latency after 24 hours ([1]; 11.0 mg/kg i.p.): 245.7 s | Retention trial: Step-down latency after 48 hours ([1]; 11.0 mg/kg i.p.): 177.0 s | Acquisition trial: Number of step-down ([1]; 11.0 mg/kg i.p.): 2.2 times | Acquisition trial: Step-down latency ([1]; 11.0 mg/kg i.p.): 8.9 s | Acquisition trial: Total time for the test ([1]; 11.0 mg/kg i.p.): 57.1 s

Inhibitory activity in vitro (in words) (prolyl endopeptidase): not effective in vitro
Compound: O=C([C@@H]1CSCN1C(=O)OCc1ccccc1)N1CSC[C@H]1CO [Example 3, N-benzyloxycarbonyl-L-thioprolyl-L-thioprolinol]
Acquisition trial: Step-down latency [1, 2]: 9.8 s | Retention trial: Step-down latency after 24 hours ([1]; 2.2 mg/kg i.p.): 238.2 s | Retention trial: Step-down latency after 48 hours ([1]; 2.2 mg/kg i.p.): 174.0 s | Acquisition trial: Number of step-down ([1]; 2.2 mg/kg i.p.): 2.4 times | Acquisition trial: Total time for the test ([1]; 2.2 mg/kg i.p.): 67.5 s
